From the NIST ThermoML archive (doi:10.1016/j.jct.2011.10.023)
± gives the expanded uncertainty stated by the source.

Details: Liquid, Vibrating tube method

CCCCCCCCCCCO [1-undecanol]
mass density [kg/m3]
Details	298.15 K	308.15 K	318.15 K	328.15 K	338.15 K	348.15 K	358.15 K
100 kPa	827.7 ± 2.4	820.9 ± 2.4	814.1 ± 2.4	807.4 ± 2.4	800.5 ± 2.4	793.3 ± 2.4	786 ± 2.4
1000 kPa	828.2 ± 2.4	821.5 ± 2.4	814.7 ± 2.4	808 ± 2.4	801.1 ± 2.4	793.8 ± 2.4	786.8 ± 2.4
5000 kPa	830.7 ± 2.4	824 ± 2.4	817.4 ± 2.4	810.8 ± 2.4	803.9 ± 2.4	797.1 ± 2.4	790 ± 2.4
10000 kPa	833.6 ± 2.4	827.1 ± 2.4	820.6 ± 2.4	814.1 ± 2.4	807.3 ± 2.4	800.8 ± 2.4	793.9 ± 2.4
15000 kPa	836.4 ± 2.4	830 ± 2.4	823.7 ± 2.4	817.3 ± 2.4	810.6 ± 2.4	804.3 ± 2.4	797.6 ± 2.4
20000 kPa	839.2 ± 2.4	832.9 ± 2.4	826.6 ± 2.4	820.4 ± 2.4	813.8 ± 2.4	807.6 ± 2.4	801.1 ± 2.4
25000 kPa	841.8 ± 2.4	835.6 ± 2.4	829.5 ± 2.4	823.3 ± 2.4	816.9 ± 2.4	810.8 ± 2.4	804.4 ± 2.4
30000 kPa	844.4 ± 2.4	838.3 ± 2.4	832.3 ± 2.4	826.2 ± 2.4	819.9 ± 2.4	813.9 ± 2.4	807.7 ± 2.4
35000 kPa	846.9 ± 2.4	840.9 ± 2.4	834.8 ± 2.4	829 ± 2.4	822.8 ± 2.4	816.9 ± 2.4	810.8 ± 2.4
40000 kPa	849.4 ± 2.4	843.4 ± 2.4	837.6 ± 2.4	831.7 ± 2.4	825.6 ± 2.4	819.9 ± 2.4	813.9 ± 2.4
45000 kPa	851.8 ± 2.4	845.9 ± 2.4	840.1 ± 2.4	834.4 ± 2.4	828.4 ± 2.4	822.7 ± 2.5	816.6 ± 2.5
50000 kPa	854.2 ± 2.4	848.3 ± 2.4	842.6 ± 2.5	837 ± 2.5	831 ± 2.5	825.5 ± 2.5	819.6 ± 2.5
55000 kPa	856.5 ± 2.5	850.7 ± 2.5	845.1 ± 2.5	839.5 ± 2.5	833.6 ± 2.5	828.1 ± 2.5	822.4 ± 2.5
60000 kPa	858.7 ± 2.5	852.9 ± 2.5	847.3 ± 2.5	841.8 ± 2.5	836 ± 2.5	830.7 ± 2.5	824.9 ± 2.5

CCCCO [butan-1-ol]
mass density [kg/m3]
Details	278.15 K	288.15 K	298.15 K	308.15 K	318.15 K	328.15 K	338.15 K	348.15 K	358.15 K
100 kPa	820.9 ± 2.4	813.5 ± 2.4	805.8 ± 2.4	798 ± 2.4	790.3 ± 2.4	782.3 ± 2.4	774 ± 2.4	765.6 ± 2.4	756.6 ± 2.4
1000 kPa	821.6 ± 2.4	814.1 ± 2.4	806.6 ± 2.4	798.8 ± 2.4	791.1 ± 2.4	783.1 ± 2.4	774.9 ± 2.4	766.3 ± 2.4	757.7 ± 2.4
5000 kPa	824.4 ± 2.4	817 ± 2.4	809.6 ± 2.4	802 ± 2.4	794.5 ± 2.4	786.7 ± 2.4	778.7 ± 2.4	770.5 ± 2.4	761.7 ± 2.4
10000 kPa	827.7 ± 2.4	820.5 ± 2.4	813.3 ± 2.4	805.9 ± 2.4	798.5 ± 2.4	790.9 ± 2.4	783.2 ± 2.4	775.3 ± 2.4	767 ± 2.4
15000 kPa	830.9 ± 2.4	823.9 ± 2.4	816.8 ± 2.4	809.5 ± 2.4	802.4 ± 2.4	795 ± 2.4	787.4 ± 2.4	779.8 ± 2.4	771.7 ± 2.4
20000 kPa	834 ± 2.4	827.2 ± 2.4	820.2 ± 2.4	813 ± 2.4	805.6 ± 2.4	798.8 ± 2.4	791.4 ± 2.4	784 ± 2.4	776.2 ± 2.4
25000 kPa	837 ± 2.4	830.3 ± 2.4	823.5 ± 2.4	816.4 ± 2.4	809.5 ± 2.4	802.4 ± 2.4	795.3 ± 2.4	788 ± 2.4	780.4 ± 2.4
30000 kPa	839.9 ± 2.4	833.2 ± 2.4	826.6 ± 2.4	819.7 ± 2.4	812.9 ± 2.4	806 ± 2.4	799 ± 2.4	791.8 ± 2.4	784.4 ± 2.4
35000 kPa	842.7 ± 2.4	836.2 ± 2.4	829.6 ± 2.4	822.8 ± 2.4	816.1 ± 2.4	809.4 ± 2.4	802.5 ± 2.4	795.6 ± 2.4	788.3 ± 2.4
40000 kPa	845.4 ± 2.4	839 ± 2.4	832.6 ± 2.4	825.9 ± 2.4	819.3 ± 2.4	812.7 ± 2.4	805.9 ± 2.4	799.1 ± 2.4	792 ± 2.4
45000 kPa	848.1 ± 2.4	841.7 ± 2.4	835.4 ± 2.4	828.8 ± 2.4	822.4 ± 2.4	815.8 ± 2.4	809.2 ± 2.4	802.5 ± 2.4	795.5 ± 2.4
50000 kPa	850.7 ± 2.4	844.4 ± 2.4	838.2 ± 2.4	831.7 ± 2.4	825.3 ± 2.4	818.9 ± 2.4	812.4 ± 2.4	805.8 ± 2.4	799 ± 2.4
55000 kPa	853.2 ± 2.4	846.8 ± 2.4	840.9 ± 2.4	834.5 ± 2.4	828.2 ± 2.4	821.8 ± 2.4	815.4 ± 2.4	809 ± 2.4	802.3 ± 2.4
60000 kPa	855.6 ± 2.4	849.4 ± 2.4	843.3 ± 2.4	837 ± 2.4	830.9 ± 2.4	824.6 ± 2.4	818.4 ± 2.4	811.9 ± 2.5	805.3 ± 2.5

CCCCCCCCCCO [decan-1-ol]
mass density [kg/m3]
Details	288.15 K	298.15 K	308.15 K	318.15 K	328.15 K	338.15 K	348.15 K	358.15 K
100 kPa	832.3 ± 2.4	825.5 ± 2.4	818.7 ± 2.4	811.9 ± 2.4	805 ± 2.4	798 ± 2.4	790.9 ± 2.4	783.6 ± 2.4
1000 kPa	832.8 ± 2.4	826 ± 2.4	819.3 ± 2.4	812.5 ± 2.4	805.7 ± 2.4	798.7 ± 2.4	791.6 ± 2.4	784.3 ± 2.4
5000 kPa	835.2 ± 2.4	828.5 ± 2.4	821.9 ± 2.4	815.3 ± 2.4	808.5 ± 2.4	801.7 ± 2.4	794.8 ± 2.4	787.6 ± 2.4
10000 kPa	838 ± 2.4	831.5 ± 2.4	825 ± 2.4	818.5 ± 2.4	811.9 ± 2.4	805.2 ± 2.4	798.5 ± 2.4	791.6 ± 2.4
15000 kPa	840.8 ± 2.4	834.4 ± 2.4	828 ± 2.4	821.7 ± 2.4	815.2 ± 2.4	808.7 ± 2.4	802 ± 2.4	795.3 ± 2.4
20000 kPa	843.5 ± 2.4	837.2 ± 2.4	830.9 ± 2.4	824.7 ± 2.4	818.3 ± 2.4	812 ± 2.4	805.5 ± 2.4	798.9 ± 2.4
25000 kPa	846.1 ± 2.4	839.8 ± 2.4	833.7 ± 2.4	827.6 ± 2.4	821.4 ± 2.4	815.1 ± 2.4	808.8 ± 2.4	802.3 ± 2.4
30000 kPa	848.6 ± 2.4	842.5 ± 2.4	836.4 ± 2.4	830.4 ± 2.4	824.3 ± 2.4	818.1 ± 2.4	811.9 ± 2.4	805.6 ± 2.4
35000 kPa	851.1 ± 2.4	845.1 ± 2.4	839.1 ± 2.4	833.2 ± 2.4	827.1 ± 2.4	821.1 ± 2.4	815 ± 2.4	808.8 ± 2.4
40000 kPa	853.5 ± 2.4	847.6 ± 2.4	841.7 ± 2.4	835.8 ± 2.4	829.9 ± 2.4	824 ± 2.4	817.9 ± 2.4	811.9 ± 2.4
45000 kPa	855.9 ± 2.4	850 ± 2.4	844.2 ± 2.4	838.5 ± 2.4	832.6 ± 2.4	826.7 ± 2.5	820.8 ± 2.5	814.8 ± 2.5
50000 kPa	858.2 ± 2.4	852.4 ± 2.4	846.6 ± 2.4	841 ± 2.5	835.2 ± 2.5	829.4 ± 2.5	823.6 ± 2.5	817.7 ± 2.5
55000 kPa	860.4 ± 2.4	854.7 ± 2.5	849 ± 2.5	843.4 ± 2.5	837.7 ± 2.5	832.1 ± 2.5	826.4 ± 2.5	820.5 ± 2.5
60000 kPa	862.7 ± 2.5	856.8 ± 2.5	851.2 ± 2.5	845.7 ± 2.5	840.2 ± 2.5	834.5 ± 2.5	829 ± 2.5	822.9 ± 2.5

CCO [ethanol]
mass density [kg/m3]
Details	278.15 K	288.15 K	298.15 K	308.15 K	318.15 K	328.15 K	338.15 K	348.15 K	358.15 K
100 kPa	801.9 ± 2.4	793.4 ± 2.4	784.8 ± 2.4	776.1 ± 2.4	767.4 ± 2.4	758.4 ± 2.4	749.1 ± 2.4	739.5 ± 2.4	729.5 ± 2.4
1000 kPa	802.7 ± 2.4	794.2 ± 2.4	785.6 ± 2.4	777 ± 2.4	768.3 ± 2.4	759.4 ± 2.4	750.2 ± 2.4	740.7 ± 2.4	730.7 ± 2.4
5000 kPa	805.9 ± 2.4	797.6 ± 2.4	789.3 ± 2.4	780.9 ± 2.4	772.4 ± 2.4	763.7 ± 2.4	754.8 ± 2.4	745.6 ± 2.4	736 ± 2.4
10000 kPa	809.9 ± 2.4	801.8 ± 2.4	793.6 ± 2.4	785.4 ± 2.4	777.2 ± 2.4	768.8 ± 2.4	760.1 ± 2.4	751.3 ± 2.4	742.1 ± 2.4
15000 kPa	813.6 ± 2.4	805.8 ± 2.4	797.7 ± 2.4	789.7 ± 2.4	781.7 ± 2.4	773.6 ± 2.4	765.2 ± 2.4	756.6 ± 2.4	747.7 ± 2.4
20000 kPa	817.2 ± 2.4	809.5 ± 2.4	801.7 ± 2.4	793.9 ± 2.4	786 ± 2.4	778.1 ± 2.4	769.9 ± 2.4	761.6 ± 2.4	753 ± 2.4
25000 kPa	820.6 ± 2.4	813.1 ± 2.4	805.3 ± 2.4	797.8 ± 2.4	790.1 ± 2.4	782.4 ± 2.4	774.4 ± 2.4	766.4 ± 2.4	758 ± 2.4
30000 kPa	824 ± 2.4	816.6 ± 2.4	809 ± 2.4	801.5 ± 2.4	794 ± 2.4	786.5 ± 2.4	778.7 ± 2.4	770.8 ± 2.4	762.8 ± 2.4
35000 kPa	827.2 ± 2.4	819.9 ± 2.4	812.5 ± 2.4	805.2 ± 2.4	797.8 ± 2.4	790.4 ± 2.4	782.8 ± 2.4	775.1 ± 2.4	767.2 ± 2.4
40000 kPa	830.3 ± 2.4	823.1 ± 2.4	815.9 ± 2.4	808.7 ± 2.4	801.4 ± 2.4	794.2 ± 2.4	786.7 ± 2.4	779.2 ± 2.4	771.5 ± 2.4
45000 kPa	833.3 ± 2.4	826.3 ± 2.4	819.2 ± 2.4	812 ± 2.4	804.9 ± 2.4	797.8 ± 2.4	790.5 ± 2.4	783.1 ± 2.4	775.6 ± 2.4
50000 kPa	836.3 ± 2.4	829.3 ± 2.4	822.3 ± 2.4	815.3 ± 2.4	808.3 ± 2.4	801.3 ± 2.4	794.1 ± 2.4	786.9 ± 2.5	779.5 ± 2.5
55000 kPa	839.1 ± 2.4	832.3 ± 2.4	825.4 ± 2.4	818.5 ± 2.4	811.6 ± 2.4	804.7 ± 2.4	797.7 ± 2.5	790.5 ± 2.5	783.3 ± 2.5
60000 kPa	841.8 ± 2.4	835 ± 2.4	828.1 ± 2.4	821.4 ± 2.4	814.6 ± 2.5	807.8 ± 2.5	800.8 ± 2.5	793.8 ± 2.5	786.7 ± 2.5
